Data from patent US10807960B2, “Compounds, compositions, and methods for controlling biofilms” (KATHOLIEKE UNIVERSITEIT LEUVEN, priority 2015, dated 2020).
Where two headings read alike, the source gives them in different places.

Legend:
C. albicans SC5314 = experiment: inhibition of C. albicans biofilms, cell titer blue (CTB) quantification; format: cell-based, Candida albicans; details: monospecies biofilm; novel compounds: highest concentration tested 100 μM
Description: The potential of the compounds to prevent C. albicans SC5314 biofilm formation was assessed using the cell titer blue (CTB) quantification method (26). For the CTB method, an overnight culture of C. albicans SC5314 was washed with PBS and a cell suspension of 10^6 cells/ml (OD600=0.1) was prepared in RPMI 1640 medium (pH 7.0). […] After 16 h of static incubation at 37° C., biofilms were washed and quantified with CTB as described previously.

[1] = system: C. albicans SC5314 + S. epidermidis; experiment: mixed C. albicans/S. epidermidis biofilm assay, selective plating; format: cell-based, Candida albicans; Staphylococcus epidermidis; details: for activity at 25 µM: 25 μM (Table 5); for activity at 100 µM: 100 μM (Table 5)
Description: The concentrations 25 μM (0.0625% DMSO or ethanol) and 100 μM (0.25% DMSO or ethanol) were tested. After 24 h of incubation at 37° C., biofilms were washed with PBS and fresh medium with or without compounds was added. After further incubation for 48 h at 37° C., the biofilms were washed with PBS after which the cells were re-suspended in 100 μl of PBS by scraping off, sonication (1 min, 45 kHz, USC300-T; VWR, Radnor, Pa., USA) and vigorously pipetting up-and-down. Finally, the biofilm cells were diluted in PBS and plated on YPD agar plates containing 100 mg/L ampicillin and TSA plates containing 25 mg/L amphotericin B, to determine the number of fungal and bacterial CFUs after 2 days of incubation at 37° C., respectively. The percentage of C. albicans SC5314 and S. epidermidis cells was determined relative to the DMSO or ethanol control treatment.

[2] = system: bone-marrow derived mesenchymal stem cells (MSC); experiment: mammalian-cell viability assay, trypan blue staining; format: cell-based; details: 12.5 μM, 6 days exposure
Description: (§1) Cell viability of two human primary cell types, namely, osteoblasts (OB) and bone-marrow derived mesenchymal stem cells (MSC) was tested according to the ISO 10993-5 standard, as previously described. Briefly, cells were seeded in 96-well tissue culture test plates (TPP, Switzerland) at 5×10^3 cells/cm^2 in Advanced DMEM cell culture media supplemented with 10% serum, 1× GlutaMAX, 0.05 mg/mL Gentamycin, and were allowed to attach overnight. The next day, the cells were exposed to (i) cell culture medium and medium with the corresponding control (0.5% ethanol or DMSO) (negative controls), (ii) medium with 0.05% phenol (cytotoxic control), and (iii) medium with compounds (12.5 μM) and incubated for 2 h, 48 h and 6 days (8 repeats for each condition). At each time-point the numbers of viable and dead cells were determined directly by trypan blue staining, and indirectly by measuring the metabolic activity with MTT (3-(4,5-dimethylthiazol-2-yl)-2,5-diphenyltetrazolium bromide) staining.
(§2) The medium was removed from the wells, and 1/3 trypan blue in Dulbecco's modified Eagle's medium (DMEM) was added to the cells, incubated for 3 min, after which trypan blue was removed and DMEM medium was added to the wells. In each of four wells, two microscopy fields were counted for viable (transparent) and dead (blue) cells.

osteoblasts (OB) [3] = experiment: as above; format: cell-based; details: 12.5 μM, 6 days exposure
Description: as §1, §2

[4] = system: bone-marrow derived mesenchymal stem cells (MSC); experiment: metabolic activity, MTT staining; format: cell-based; details: 12.5 μM, 6 days treatment
Description: as §1
(§3) The medium was removed from the wells and 100 μl of medium, supplemented with 10% serum and 0.5 mg/mL MTT was added to the cells. The cells were incubated overnight at 37° C. and 5% CO2. The next day the medium with MTT was removed and 100 μl acidic isopropanol was added. The cells were then centrifuged at 2300 g and 50 μl of the supernatant was transferred to a new 96-well plate. The absorbance was measured at 570 nm and the background was measured at 660 nm. Four wells per condition were examined.

osteoblasts (OB) [5] = experiment: metabolic activity, MTT staining; format: cell-based; details: 12.5 μM, 6 days treatment
Description: as §1, §3

[6] = system: bone-marrow derived mesenchymal stem cells (MSC); experiment: osteogenic differentiation, calcium and DNA assay; format: cell-based, human; details: 12.5 μM, calcium content normalized by DNA, versus solvent control
Description: (§4) The effect on osteogenic differentiation potential was assessed as previously described. Only the substances that allowed survival of the cells for more than 3 weeks, which is the time needed for mature osteogenic differentiation, were tested. Briefly, osteoblasts and bone-marrow derived mesenchymal stem cells were cultured in a positive solvent control (osteogenic medium with 0.5% DMSO or ethanol background), a negative control (medium without osteogenic supplements) and treated samples (osteogenic medium, 0.5% DMSO or ethanol background and 12.5 μM of test compound) with four repeats per condition. Mesenchymal stem cells and osteoblast cell cultures were harvested after 3 or 5 weeks, respectively, for the calcium and DNA assay.
(§5) Calcium deposition of osteoblasts and mesenchymal stem cells was measured with the Calcium CPC LiquiColor test (Stanbio Laboratory, Boerne, Tex.) as previously described. Briefly, cell cultures were extracted with 5% trichloroacetic acid (500 μl per sample), O-cresolphtalein complex was added, and the calcium content was determined spectrophotometrically at 550 nm. DNA content was determined as previously described. DNA values were used to normalize the calcium content. Four wells per condition were examined, and two samples from each well were taken for each assay.

osteoblasts (OB) [7] = experiment: osteogenic differentiation, calcium and DNA assay; format: cell-based, human; details: 12.5 μM, calcium content normalized by DNA, versus solvent control
Description: as §4, §5

[8] = C. albicans in mixed biofilm with S. epidermidis, read-out: CFUs % survival C.a.

| metabolic activity compared to the solvent control (in words) [4] | metabolic activity compared to the solvent control (in words) (osteoblasts (OB) [5]) | SMILES | anti-biofilm activity (in words) (C. albicans SC5314) | effect on the C. albicans/S. epidermidis mixture (in words) [1] | activity at 25 µM [1, 8] | activity at 100 µM [1, 8] | proliferation (in words) [2] | proliferation (in words) (osteoblasts (OB) [3]) | calcium deposition (in words) [6] | calcium deposition (in words) (osteoblasts (OB) [7]) | activity at 25 µM ([1]; S. epidermidis in mixed biofilm with C. albicans, read-out: CFUs % survival S.c.) | activity at 100 µM ([1]; S. epidermidis in mixed biofilm with C. albicans, read-out: CFUs % survival Se.) |
| --- | --- | --- | --- | --- | --- | --- | --- | --- | --- | --- | --- | --- |
| increased | increased | CCCCCCCCn1c(-c2ccc(Cl)c(Cl)c2)cnc1NCC(C)C [Compound 8d, 5-(3,4-dichlorophenyl)-N-isobutyl-1-octyl-1H-imidazol-2-amine] | not active | only reduced C. albicans | 2.5% | 1.4% | increase in proliferation | increase in proliferation | none of the compounds negatively affected the calcium deposition | none of the compounds negatively affected the calcium deposition | – | – |
| increased | increased | CCCCCCCCn1c(-c2ccc(Br)cc2)cnc1NC1CCCC1 [Compound 8g, 5-(4-bromophenyl)-N-cyclopentyl-1-octyl-1H-imidazol-2-amine] | – | – | 3.3% | 5.9% | slightly reduced | increase in proliferation | induced the calcium deposition | induced the calcium deposition | 0% | 0% |
